Data reported in PMC8909107, “Imaging Kv1.3 Expressing Memory T Cells as a Marker of Immunotherapy Response” (Cancers, 2022).
Bridges are numbered along the chain shown (N, C = ends). Where no end group is shown, it is not given here. The star is where a group is joined. NOTA = O=C(O)CN1CCN(CC(=O)O)CCN(CC(=O)*)CC1

Tests used:
[1] = target: T1, KV1.3 channels (L929 fibroblasts stably expressing KV1.3) (Mus musculus, UniProt P16390); experiment: Patch-clamp (QPatch HTX), run-down of Kv1.3 currents after overnight exposure; assay type: cell-based; settings: L929-KV1.3 cells, overnight exposure 0.1, 1 or 10 μM; current density (pA/pF) at pulses 18-20 normalized to control; n = 13; read-out: IC50 (50% suppression) from normalized current density
T1 construct: expressed in transfected cells
T1 sequence (P16390 whole entry): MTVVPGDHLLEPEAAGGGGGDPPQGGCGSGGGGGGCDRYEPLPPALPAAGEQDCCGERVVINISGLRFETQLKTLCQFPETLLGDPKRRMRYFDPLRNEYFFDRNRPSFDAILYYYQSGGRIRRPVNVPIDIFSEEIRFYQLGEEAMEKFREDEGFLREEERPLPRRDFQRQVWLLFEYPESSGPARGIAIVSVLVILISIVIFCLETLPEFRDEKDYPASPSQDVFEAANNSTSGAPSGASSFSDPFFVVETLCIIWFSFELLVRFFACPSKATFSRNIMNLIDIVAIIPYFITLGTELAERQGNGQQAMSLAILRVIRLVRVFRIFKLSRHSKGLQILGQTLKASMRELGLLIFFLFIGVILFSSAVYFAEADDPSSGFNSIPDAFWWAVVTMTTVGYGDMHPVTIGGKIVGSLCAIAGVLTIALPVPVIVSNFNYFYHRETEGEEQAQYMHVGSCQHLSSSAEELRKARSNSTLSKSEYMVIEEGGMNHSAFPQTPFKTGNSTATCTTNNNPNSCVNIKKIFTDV
Experimental: The effects of the peptides NOTA-KCNA3P and EgK5 on KV1.2, KV1.3 and KV1.5 [19] channels were evaluated by patch-clamp as detailed in the Supplementary Materials (Supplementary Figure S3) using a QPatch HTX automated electrophysiology platform.
We used patch-clamp analysis to determine if NOTA-KCNA3P modulates Kv1.3 channels such as EgK5. We exposed L929 fibroblasts stably expressing KV1.3 channels overnight to NOTA-KCNA3P (0.1, 1 or 10 μM) or EgK5 (10 μM) dissolved in P6N buffer, or to media containing an equal volume of P6N buffer. […] Concentration–response curves generated with either normalized current amplitude or normalized current density yielded IC50 (50% suppression) values of […] and 50 nM, respectively, for NOTA-KCNA3P (Supplementary Figure S3D,E). […]
[18F]AlF-NOTA-KCNA3P was between 8.2 - 8.3 min. […] The radiochemical purity of [18F]AlF-NOTA-KCNA3P was assessed by analytical radio-HPLC (Aeris™ 5µm PEPTIDE XB-C18, 100 Å, 250 x 4.6 mm; 1 ml / min, λ = 220 nm). […]
NOTA-KCNA3P and EgK5 were prepared as 1-10 mM stock solutions in P6N buffer (10 mM sodium phosphate, 0.8% w/v, NaCl, and 0.05% v/v Tween 20, pH 6), diluted with 0.1% (w/v) BSA in external buffer. The effects of peptides on KV1.2, KV1.3 and KV1.5[1] channels were evaluated by patch-clamp using a QPatch HTX automated electrophysiol-ogy platform (Sophion, Denmark) (Supplementary Figure S3). […]

[2] = set-up: species or system mice; settings: in vivo, ~20MBq i.v., blood samples at 0, 30, 60 and 120 min p.i., radioHPLC, over 120 minutes
Text: Mice were imaged under isoflurane anaesthesia and injected with [^18F]AlF-NOTA-KCNA3P (~10 MBq) via the lateral tail vein. Dynamic time–activity curves were acquired to assess tracer uptake and clearance profiles (Supplementary Figure S4) and tail vein blood samples taken to assess in vivo metabolic stability (Supplementary Figure S7). To stratify response to therapy, animals were imaged on day 12 using a Siemens Inveon PET-CT as previously described. […] Data are expressed as % of the injected dose per gram (%ID/g) of tumour tissue in the volume of interest.
Supplementary Figure S5. […] ICI treated responder (TR, black) and treated non responder (TNR, white) animals were sacrificed 80min post-injection, tissues excised, weighed and radioactivity quantified using a Wallac gamma counter. […]
Tumour Kv1.3 expression on infiltrating lymphocytes (TILs) were quantified using standard western blotting procedures as previously described. […]
An equal amount of 10% sulfosalicylic acid was added to the supernatant plasma samples and vortexed to precipitate out remaining proteins. The samples were centrifuged at 2,500 x g for 5 min at 4 °C, and the supernatant analyzed via radioHPLC. […]

[3] = assay type: in vivo, BalbC mice bearing CT26 tumours
Experimental: (§1) Mice were imaged under isoflurane anaesthesia and injected with [^18F]AlF-NOTA-KCNA3P (~10 MBq) via the lateral tail vein. Dynamic time–activity curves were acquired to assess tracer uptake and clearance profiles (Supplementary Figure S4) and tail vein blood samples taken to assess in vivo metabolic stability (Supplementary Figure S7). To stratify response to therapy, animals were imaged on day 12 using a Siemens Inveon PET-CT as previously described. Briefly, 20 min static PET acquisitions were acquired from 60 min post-injection and analysis of the reconstructed calibrated images was performed and volumes of interest delineated by CT imaging were used to determine tissue uptake (whole body distribution shown for reference in Supplementary Figure S8). Data are expressed as % of the injected dose per gram (%ID/g) of tumour tissue in the volume of interest.
Tumour uptake of [^18F]AlF-NOTA-KCNA3P was heterogeneous depending on treatment regime and treatment efficacy (Figure 3A) with a tumour-to-blood ratio (TBR) of ~2 in tumour responders and a TBR of ~1 in tumour non-responders (TNRs). Low tumour uptake of [^18F]AlF-NOTA-KCNA3P was measured in the TNRs and the control treatment arm. […] Tumour uptake of [^18F]AlF-NOTA-KCNA3P was sufficient to distinguish from background and differentiated responsive tumours from treated non-responders (Table 1 and Figure 3B,C) in vivo. Ex vivo biodistribution was used to confirm the imaging results (Supplementary Figure S5). Importantly, no difference was seen between non-responders and responders in the biodistribution of [^18F]AlF-NOTA-KCNA3P in muscle, blood, lung, skin, heart and brain, the only difference being in the tumour (Supplementary Figure S5). […]
1.7 In vivo biodistribution of [18F]AlF-NOTA-KCNA3P
The biodistribution of [18F]AlF-NOTA-KCNA3P was assessed in BalbC mice bearing CT26 tumours treated with combined PD-1 and CTLA4 therapy. The animals were im-aged dynamically for 120 minutes and the distribution and excretion characteristics as- […]
the kidneys and hepatobiliary routes (Supplementary Figure S4). Blood clearance is […]
Supplementary Figure S5. Ex vivo biodistribution analysis of [18F]AlF-NOTA-KCNA3P retention in selected organs. ICI treated responder (TR, black) and treated non responder (TNR, white) animals were sacrificed 80min post-injection, tissues excised, weighed and radioactivity quantified using a Wallac gamma counter. Bars represent the mean of 5 animals ± SEM, * P<0.05.
1.9 Western blot analysis of Kv1.3 […]
The following anti- […]
bodies were used: anti-Kv1.3 KCNA3 (APC-101, Alomone) and anti-GAPDH (SC-47724, […]
Supplementary Figure S6. […]

[4] = PET-CT tumour retention of the tracer after ICI treatment; assay type: in vivo, BALB/c mice; settings: BALB/c, mouse, CT26 tumour, iv, 10 MBq, total radioactivity, PET-CT day 12, 20 min static from 60 min post-injection, ~10 MBq i.v., mean ± SD
Text: All animal procedures strictly followed IACUC guidelines (IACUC No. 181399) and conformed to NIH guidelines and public law. Development of the animal model has been described previously. Briefly, BALB/c mice aged 6–8 weeks were purchased from In Vivos (Singapore) and implanted subcutaneously into the right shoulder with the murine colon cancer cell line CT26 (ATCC, 2 × 10^5 cells per animal 1:1 (v:v) ratio in Matrigel). Tumour volumes were repeatedly measured on days 6, 9, 12, 15, 19 and 21 post tumour implantation. The mice were randomised and dosed by intraperitoneal (i.p.) injection on days 6, 9 and 12 following tumour inoculation. Treatment groups included control (5 mg/kg, rat IgG2a isotype control, α-trinitrophenol mAb, IP), αPD1 mAb monotherapy (10 mg/kg, rat IgG2a anti-mouse PD-1, RMP1-14) and combined αPD1 and αCTLA4 mAb therapy (10 mg/kg and 5 mg/kg, respectively, mouse IgG2b anti-mouse CTLA-4, 9D9, Bio-X Cell).
as §1
Tumour uptake of [^18F]AlF-NOTA-KCNA3P was heterogeneous depending on treatment regime and treatment efficacy (Figure 3A) with a tumour-to-blood ratio (TBR) of ~2 in tumour responders and a TBR of ~1 in tumour non-responders (TNRs). Low tumour uptake of [^18F]AlF-NOTA-KCNA3P was measured in the TNRs and the control treatment arm. […] Tumour uptake of [^18F]AlF-NOTA-KCNA3P was sufficient to distinguish from background and differentiated responsive tumours from treated non-responders (Table 1 and Figure 3B,C) in vivo. Ex vivo biodistribution was used to confirm the imaging results (Supplementary Figure S5). Importantly, no difference was seen between non-responders and responders in the biodistribution of [^18F]AlF-NOTA-KCNA3P in muscle, blood, lung, skin, heart and brain, the only difference being in the tumour (Supplementary Figure S5).

Substance	IC50 [1]	metabolism of parent tracer in plasma [2]	Blood clearance ([3]; dynamic PET 120 minutes)	muscle uptake ([3]; dynamic PET 120 minutes)	excretion profile ([3]; dynamic PET 120 minutes, CT26 tumour mice treated with combined PD-1 and CTLA4 therapy)	difference between non-responders and responders in biodistribution in muscle, blood, lung, skin, heart and brain ([3]; ex vivo biodistribution, 80min post-injection, gamma counter, 5 animals)	tissue uptake ([4]; Control group (isotype IgG), n = 10 mice/group)	tissue uptake ([4]; Treatment non-responders (TNR))	tissue uptake ([4]; Treatment responsive tumours (TR), αPD1 + αCTLA4)	tissue uptake ([4]; Treatment responsive tumours (TR), αPD1)
{NOTA}-RTCESASHKFEGPCLRDSNCANVCKTEGFHGGKCKGLRRRCFCTKHC (disulfide 3-47, 14-34, 20-41, 24-43) [NOTA-KCNA3P]	50 nM	–	–	–	–	–	–	–	–	–
{NOTA}-RTCESASHKFEGPCLRDSNCANVCKTEGFHGGKCKGLRRRCFCTKHC (disulfide 3-47, 14-34, 20-41, 24-43) [[^18F]AlF-NOTA-KCNA3P]	–	less than 30%	rapid	relatively low	excretion via the kidneys and hepatobiliary routes	no difference	0.51 ± 0.19 %ID/g	0.53 ± 0.2 %ID/g	1.3 ± 0.36 %ID/g	0.87 ± 0.15 %ID/g
